The subject of this assay is MV-4-11 cells. Put plainly: Gene expression microarray analysis (Affymetrix PrimeView) and GSEA. The assay is classed as cell-based, human. Set-up: RFU PODN (11730768_x_at) / Fold change /veh PODN (11730768_x_at) / RFU LINC00158 (11744669_a_at) / Fold change /veh LINC00158 (11744669_a_at) / RFU DUSP10 (11751237_a_at) / Fold change /veh DUSP10 (11751237_a_at) / RFU ID3 (11757404_x_at) / Fold change /veh ID3 (11757404_x_at) / RFU PLEKHG5 (11737974_s_at) / Fold change /veh PLEKHG5 (11737974_s_at) / RFU LRRC4B (11730491_at) / Fold change /veh LRRC4B (11730491_at) / RFU GIMAP4 (11747438_a_at) / Fold change /veh GIMAP4 (11747438_a_at) / RFU KRT8 (11758183_x_at) / Fold change /veh KRT8 (11758183_x_at) / RFU CNN1 (11734310_a_at) / Fold change /veh CNN1 (11734310_a_at) / RFU VPS37D (11726825_at) / Fold change /veh VPS37D (11726825_at) / RFU C10orf10 (11716522_x_at) / Fold change /veh C10orf10 (11716522_x_at) / RFU KIR2DL2 /// KIR2DL4 /// KIR2DL5A /// KIR2DL5B /// KIR2DS1 /// KIR2DS2 /// KIR2DS3 /// KIR2DS4 /// KIR3DL3 /// KIR3DL3 /// KIR3DS1 (11738374_at) / Fold change /veh KIR2DL2 /// KIR2DL4 /// KIR2DL5A /// KIR2DL5B /// KIR2DS1 /// KIR2DS2 /// KIR2DS3 /// KIR2DS4 /// KIR3DL3 /// KIR3DL3 /// KIR3DS1 (11738374_at) / RFU C1QL1 (11718748_at) / Fold change /veh C1QL1 (11718748_at) / RFU TMPRSS4 (11747572_a_at) / Fold change /veh TMPRSS4 (11747572_a_at) / RFU HAMP (11756126_x_at) / Fold change /veh HAMP (11756126_x_at) / RFU RNFT2 (11725882_a_at) / Fold change /veh RNFT2 (11725882_a_at) / RFU NR4A2 (11747474_a_at) / Fold change /veh NR4A2 (11747474_a_at) / RFU ABCC12 (11746883_a_at) / Fold change /veh ABCC12 (11746883_a_at) / RFU TMEM136 (11760407_x_at) / Fold change /veh TMEM136 (11760407_x_at) / RFU CLDN22 /// WWC2 (11732394_at) / Fold change /veh CLDN22 /// WWC2 (11732394_at) / RFU HLA-DPB1 (11760878_x_at) / Fold change /veh HLA-DPB1 (11760878_x_at) / RFU SPINT1 (11716480_a_at) / Fold change /veh SPINT1 (11716480_a_at) / RFU GAP43 (11754022_s_at) / Fold change /veh GAP43 (11754022_s_at) / RFU A4GNT (11735810_at) / Fold change /veh A4GNT (11735810_at) / RFU PRB3 (11715151_x_at) / Fold change /veh PRB3 (11715151_x_at) / RFU TUBB4B (11761932_at) / Fold change /veh TUBB4B (11761932_at) / RFU CAPN14 (11732068_a_at) / Fold change /veh CAPN14 (11732068_a_at) / RFU TMCC2 (11721928_a_at) / Fold change /veh TMCC2 (11721928_a_at) / RFU IRGQ (11745062_a_at) / Fold change /veh IRGQ (11745062_a_at) / RFU FAM174B (11720279_a_at) / Fold change /veh FAM174B (11720279_a_at) / RFU TMPRSS4 (11748680_a_at) / Fold change /veh TMPRSS4 (11748680_a_at) / RFU FAM212B (11763350_a_at) / Fold change /veh FAM212B (11763350_a_at) / RFU PLEKHG5 (11743358_a_at) / Fold change /veh PLEKHG5 (11743358_a_at) / RFU ZSCAN30 (11745921_a_at) / Fold change /veh ZSCAN30 (11745921_a_at) / RFU CMKLR1 (11741424_a_at) / Fold change /veh CMKLR1 (11741424_a_at) / RFU LOC101060620 /// MAPK8IP1 (11723275_at) / Fold change /veh LOC101060620 /// MAPK8IP1 (11723275_at) / RFU SPTSSB (11747773_x_at) / Fold change /veh SPTSSB (11747773_x_at) / RFU PRSS12 (11739890_at) / Fold change /veh PRSS12 (11739890_at) / RFU BIN1 (11741810_x_at) / Fold change /veh BIN1 (11741810_x_at) / RFU WNT11 (11732464_a_at) / Fold change /veh WNT11 (11732464_a_at) / RFU C10orf10 (11716521_a_at) / Fold change /veh C10orf10 (11716521_a_at) / RFU C5orf56 (11738089_at) / Fold change /veh C5orf56 (11738089_at) / RFU CYB561 (11721691_x_at) / Fold change /veh CYB561 (11721691_x_at) / RFU ANKRD19P (11752326_a_at) / Fold change /veh ANKRD19P (11752326_a_at) / RFU OR2T12 /// OR2T33 /// OR2T8 (11738714_s_at) / Fold change /veh OR2T12 /// OR2T33 /// OR2T8 (11738714_s_at) / RFU VCAN (11748164_a_at) / Fold change /veh VCAN (11748164_a_at) / RFU JSRP1 (11732532_at) / Fold change /veh JSRP1 (11732532_at) / RFU KRTAP10-11 (11738290_x_at) / Fold change /veh KRTAP10-11 (11738290_x_at) / RFU MYO3A (11730013_a_at) / Fold change /veh MYO3A (11730013_a_at) / RFU EBF3 (11725865_a_at) / Fold change /veh EBF3 (11725865_a_at) / RFU CAMK2N1 (11719241_x_at) / Fold change /veh CAMK2N1 (11719241_x_at) / RFU C5orf56 (11738088_a_at) / Fold change /veh C5orf56 (11738088_a_at) / RFU OLFML3 (11715873_a_at) / Fold change /veh OLFML3 (11715873_a_at) / RFU LOC100653217 /// NTM (11731650_a_at) / Fold change /veh LOC100653217 /// NTM (11731650_a_at) / RFU MAPK11 (11762145_a_at) / Fold change /veh MAPK11 (11762145_a_at) / RFU FIZ1 (11724087_x_at) / Fold change /veh FIZ1 (11724087_x_at) / RFU OASL (11726364_x_at) / Fold change /veh OASL (11726364_x_at) / RFU SOX15 (11748057_x_at) / Fold change /veh SOX15 (11748057_x_at) / RFU CD79A (11719716_a_at) / Fold change /veh CD79A (11719716_a_at) / RFU HIST1H1D (11736915_at) / Fold change /veh HIST1H1D (11736915_at) / RFU CASKIN2 (11723855_a_at) / Fold change /veh CASKIN2 (11723855_a_at) / RFU LOC730098 (11760151_x_at) / Fold change /veh LOC730098 (11760151_x_at) / RFU OR4N2 (11742367_at) / Fold change /veh OR4N2 (11742367_at) / RFU PRRT2 (11749266_a_at) / Fold change /veh PRRT2 (11749266_a_at) / RFU SNX32 (11753110_a_at) / Fold change /veh SNX32 (11753110_a_at) / RFU CDHR5 (11726645_a_at) / Fold change /veh CDHR5 (11726645_a_at) / RFU RCAN1 (11760418_a_at) / Fold change /veh RCAN1 (11760418_a_at) / RFU FAM167A (11723789_a_at) / Fold change /veh FAM167A (11723789_a_at) / RFU FAM26E (11764081_at) / Fold change /veh FAM26E (11764081_at) / RFU ISYNA1 (11749810_s_at) / Fold change /veh ISYNA1 (11749810_s_at) / RFU ACY1 (11761880_at) / Fold change /veh ACY1 (11761880_at) / RFU 11764098_at / Fold change /veh 11764098_at / RFU SAMD14 (11745864_x_at) / Fold change /veh SAMD14 (11745864_x_at) / RFU NPB (11741838_a_at) / Fold change /veh NPB (11741838_a_at) / RFU TMPRSS6 (11731388_a_at) / Fold change /veh TMPRSS6 (11731388_a_at) / RFU KRTAP10-2 (11738614_at) / Fold change /veh KRTAP10-2 (11738614_at) / RFU ARHGAP8 /// PRR5-ARHGAP8 (11727945_x_at) / Fold change /veh ARHGAP8 /// PRR5-ARHGAP8 (11727945_x_at) / RFU KRTAP5-7 /// NADSYN1 (11734609_at) / Fold change /veh KRTAP5-7 /// NADSYN1 (11734609_at) / RFU RASL12 (11751679_a_at) / Fold change /veh RASL12 (11751679_a_at) / RFU CDKN2B (11736163_a_at) / Fold change /veh CDKN2B (11736163_a_at) / RFU PRF1 (11729649_at) / Fold change /veh PRF1 (11729649_at) / RFU, ZNF638 /// ZNF638-IT1 / Fold change vs veh, ZNF638 /// ZNF638-IT1 / RFU, PANK3 / Fold change vs veh, PANK3 / RFU, SH3YL1 / Fold change vs veh, SH3YL1 / RFU, ZEB2 / Fold change vs veh, ZEB2 / RFU, NRIP1 / Fold change vs veh, NRIP1 / RFU, PTTG1IP / Fold change vs veh, PTTG1IP / RFU, CAPN2 / Fold change vs veh, CAPN2 / RFU, MED14 / Fold change vs veh, MED14 / RFU, SNORA58 / Fold change vs veh, SNORA58 / RFU, C1orf63 / Fold change vs veh, C1orf63 / RFU, LRRFIP1 / Fold change vs veh, LRRFIP1 / RFU, NDUFAF7 / Fold change vs veh, NDUFAF7 / RFU, SLC12A2 / Fold change vs veh, SLC12A2 / RFU, IBTK / Fold change vs veh, IBTK / RFU, ESF1 / Fold change vs veh, ESF1 / Fold change vs veh, TMEM50B / RFU, TAOK1 / Fold change vs veh, TAOK1 / RFU, ACBD3 / Fold change vs veh, ACBD3 / RFU, TMA16 / Fold change vs veh, TMA16 / RFU, RWDD3 / Fold change vs veh, RWDD3 / RFU, BCAT1 / Fold change vs veh, BCAT1 / RFU, EDEM3 / Fold change vs veh, EDEM3 / RFU, TMEM33 / Fold change vs veh, TMEM33 / RFU, WDR75 / Fold change vs veh, WDR75 / RFU, AHCTF1 / Fold change vs veh, AHCTF1 / RFU, TFRC / Fold change vs veh, TFRC / RFU, ZDHHC17 / Fold change vs veh, ZDHHC17 / RFU, NOM1 / Fold change vs veh, NOM1 / RFU, ARL8B / Fold change vs veh, ARL8B / RFU, ZBTB11 / Fold change vs veh, ZBTB11 / RFU, TAMM41 / Fold change vs veh, TAMM41 / RFU, KIAA1704 /// LOC100996395 / Fold change vs veh, KIAA1704 /// LOC100996395 / RFU, ING1 / Fold change vs veh, ING1 / RFU, TRMT61B / Fold change vs veh, TRMT61B / RFU, FUBP3 / Fold change vs veh, FUBP3 / RFU, TP53 / Fold change vs veh, TP53 / RFU, TNKS2 / Fold change vs veh, TNKS2 / RFU, ZFP14 / Fold change vs veh, ZFP14 / RFU, ACTR2 / Fold change vs veh, ACTR2 / RFU, PPP3R1 / Fold change vs veh, PPP3R1 / RFU, PIK3R1 / Fold change vs veh, PIK3R1 / RFU, HNRNPA1 / Fold change vs veh, HNRNPA1 / RFU, RNF170 / Fold change vs veh, RNF170 / RFU, ZNF28 / Fold change vs veh, ZNF28 / RFU, RNGTT / Fold change vs veh, RNGTT / RFU, OGT / Fold change vs veh, OGT / RFU, BRD1 / Fold change vs veh, BRD1 / RFU, MARS / Fold change vs veh, MARS / RFU, ZNF655 / Fold change vs veh, ZNF655 / RFU, FAHD1 / Fold change vs veh, FAHD1 / RFU, BDP1 / Fold change vs veh, BDP1 / RFU, LRRCC1 / Fold change vs veh, LRRCC1 / RFU, ARID1A / Fold change vs veh, ARID1A / RFU, ZNF146 / Fold change vs veh, ZNF146 / RFU, ZNF330 / Fold change vs veh, ZNF330 / RFU, GPN3 / Fold change vs veh, GPN3 / RFU, C9orf123 / Fold change vs veh, C9orf123 / RFU, N4BP2L2 / Fold change vs veh, N4BP2L2 / RFU, ARFIP1 / Fold change vs veh, ARFIP1 / RFU, FAM179B / Fold change vs veh, FAM179B / RFU, BCL10 / Fold change vs veh, BCL10 / RFU, UHRF1BP1L / Fold change vs veh, UHRF1BP1L / RFU, BET1 / Fold change vs veh, BET1 / RFU, CNOT2 / Fold change vs veh, CNOT2 / RFU, ZNF268 / Fold change vs veh, ZNF268 / Fold change vs veh, ZNF507 / RFU, DGCR2 / Fold change vs veh, DGCR2 / RFU, WDSUB1 / Fold change vs veh, WDSUB1 / Fold change vs veh, HSP90B1 /// MIR3652 / RFU, ADSS / Fold change vs veh, ADSS / RFU, GK / Fold change vs veh, GK / RFU, ZNF148 / Fold change vs veh, ZNF148 / RFU, TAF9 / Fold change vs veh, TAF9 / RFU, SLC1A5 / Fold change vs veh, SLC1A5 / RFU, SLMO2 / Fold change vs veh, SLMO2 / RFU, ABCC4 / Fold change vs veh, ABCC4 / RFU, LOC101060439 /// RAP1B / Fold change vs veh, LOC101060439 /// RAP1B / RFU, RFX7 / Fold change vs veh, RFX7 / RFU, GTPBP10 / Fold change vs veh, GTPBP10 / RFU, CNEP1R1 / Fold change vs veh, CNEP1R1 / RFU, BIVM-ERCC5 /// ERCC5 / Fold change vs veh, BIVM-ERCC5 /// ERCC5 / RFU, ILF3 / Fold change vs veh, ILF3 / RFU 11762660_at / Fold change /veh 11762660_at / RFU VCAN (11757783_s_at) / Fold change /veh VCAN (11757783_s_at) / RFU DDX43 (11728927_at) / Fold change /veh DDX43 (11728927_at) / RFU KRT8 (11758188_x_at) / Fold change /veh KRT8 (11758188_x_at) / RFU NKD1 (11759106_at) / Fold change /veh NKD1 (11759106_at) / RFU SRD5A1 (11742802_a_at) / Fold change /veh SRD5A1 (11742802_a_at) / RFU TPSAB1 /// TPSB2 (11721975_s_at) / Fold change /veh TPSAB1 /// TPSB2 (11721975_s_at) / RFU GSTM3 (11746129_a_at) / Fold change /veh GSTM3 (11746129_a_at) / RFU IL23R (11737362_x_at) / Fold change /veh IL23R (11737362_x_at) / RFU TMEM51 (11727254_a_at) / Fold change /veh TMEM51 (11727254_a_at) / RFU PIWIL2 (11732686_x_at) / Fold change /veh PIWIL2 (11732686_x_at) / RFU ORM1 (11744905_x_at) / Fold change /veh ORM1 (11744905_x_at) / RFU CCDC152 (11743942_at) / Fold change /veh CCDC152 (11743942_at) / RFU ECM1 (11717891_a_at) / Fold change /veh ECM1 (11717891_a_at) / RFU IL23R (11748794_a_at) / Fold change /veh IL23R (11748794_a_at) / RFU TNFAIP8L3 (11732012_x_at) / Fold change /veh TNFAIP8L3 (11732012_x_at) / RFU MBOAT4 (11741988_at) / Fold change /veh MBOAT4 (11741988_at) / RFU 11764193_at / Fold change /veh 11764193_at / RFU TMEM53 (11763286_at) / Fold change /veh TMEM53 (11763286_at) / RFU MAGEB2 (11727129_at) / Fold change /veh MAGEB2 (11727129_at) / RFU TMEM200A (11744735_a_at) / Fold change /veh TMEM200A (11744735_a_at) / RFU CCDC152 (11751479_a_at) / Fold change /veh CCDC152 (11751479_a_at) / RFU FAM211A (11726209_a_at) / Fold change /veh FAM211A (11726209_a_at) / RFU RGS16 (11746705_a_at) / Fold change /veh RGS16 (11746705_a_at) / RFU VCAN (11755009_s_at) / Fold change /veh VCAN (11755009_s_at) / RFU RHOB (11743442_s_at) / Fold change /veh RHOB (11743442_s_at) / RFU RGS16 (11720943_a_at) / Fold change /veh RGS16 (11720943_a_at) / RFU RGS16 (11720944_at) / Fold change /veh RGS16 (11720944_at) / RFU, VPS4B / Fold change vs veh, VPS4B / RFU, CREB1 / Fold change vs veh, CREB1 / RFU, DNAJC13 / Fold change vs veh, DNAJC13 / RFU, GNAQ / Fold change vs veh, GNAQ / RFU, CDK5R1 / Fold change vs veh, CDK5R1 / RFU, ZRANB3 / Fold change vs veh, ZRANB3 / RFU, CUL4A / Fold change vs veh, CUL4A / RFU, CCNY / Fold change vs veh, CCNY / RFU, UFL1 / Fold change vs veh, UFL1 / RFU, COG3 / Fold change vs veh, COG3 / RFU, DIAPH2 / Fold change vs veh, DIAPH2 / RFU, SKA2 / Fold change vs veh, SKA2 / RFU, AFF3 / Fold change vs veh, AFF3 / RFU, LMF1 / Fold change vs veh, LMF1 / RFU, IPO11 / Fold change vs veh, IPO11 / RFU, DFFB / Fold change vs veh, DFFB / RFU, FOXP1 / Fold change vs veh, FOXP1 / RFU, CARD8 / Fold change vs veh, CARD8 / RFU, STRN3 / Fold change vs veh, STRN3 / RFU, ADK / Fold change vs veh, ADK / RFU, RASSF2 / Fold change vs veh, RASSF2 / RFU, WIPF1 / Fold change vs veh, WIPF1 / RFU, LARP1B / Fold change vs veh, LARP1B / RFU, RASA1 / Fold change vs veh, RASA1 / RFU, RB1 / Fold change vs veh, RB1 / RFU, PPFIA1 / Fold change vs veh, PPFIA1 / RFU, MAT2A / Fold change vs veh, MAT2A / RFU, CCT5 / Fold change vs veh, CCT5 / RFU, WDR92 / Fold change vs veh, WDR92 / RFU, CUX1 / Fold change vs veh, CUX1 / RFU, TTC7A / Fold change vs veh, TTC7A / RFU, TMEM135 / Fold change vs veh, TMEM135 / RFU, DEPTOR / Fold change vs veh, DEPTOR / RFU, CPM / Fold change vs veh, CPM / RFU, DNAJB6 / Fold change vs veh, DNAJB6 / RFU, CACNA2D3 / Fold change vs veh, CACNA2D3 / RFU, DTX4 / Fold change vs veh, DTX4 / RFU, TFCP2 / Fold change vs veh, TFCP2 / RFU, GMCL1 /// GMCL1P1 / Fold change vs veh, GMCL1 /// GMCL1P1 / RFU, AEBP2 / Fold change vs veh, AEBP2 / RFU, SNHG1 /// SNORD22 /// SNORD25 /// SNORD26 /// SNORD27 /// SNORD28 /// SNORD29 /// SNORD31 / Fold change vs veh, SNHG1 /// SNORD22 /// SNORD25 /// SNORD26 /// SNORD27 /// SNORD28 /// SNORD29 /// SNORD31 / Fold change (Aza/veh), C12orf56 (ProbeSet 11735607_a_at) / Fold change (ACY-1035/veh), C12orf56 (ProbeSet 11735607_a_at) / Fold change (Aza/veh), FGFR1OP (ProbeSet 11751329_s_at) / Fold change (ACY-1035/veh), FGFR1OP (ProbeSet 11751329_s_at) / Fold change (Aza/veh), VPS36 (ProbeSet 11739960_a_at) / Fold change (ACY-1035/veh), VPS36 (ProbeSet 11739960_a_at) / RFU SYPL1 (11715823_x_at) / Fold change /veh SYPL1 (11715823_x_at) / RFU IGFBP7 (11715501_s_at) / Fold change /veh IGFBP7 (11715501_s_at) / RFU REEP3 (11722064_at) / Fold change /veh REEP3 (11722064_at) / RFU IGLL1 (11728026_x_at) / Fold change /veh IGLL1 (11728026_x_at): dose or concentration left out as unconfirmed. Particulars: MV-4-11 cells, 48 hours.

The source of these data is publication PMC5218480 (PLoS ONE, 2017).

SMILES strings stand for the structures.

On to `Nc1ncn([C@@H]2O[C@H](CO)[C@@H](O)[C@H]2O)c(=O)n1` [azacitidine], for which the “RFU ZSCAN30 (11745921_a_at)” value is 8.95 RFU.
